For orientation: Ki means a measure of affinity in units of concentration, obtained from inhibition or displacement. Low values mean tighter binding, high ones weaker binding.

The structures appear in SMILES notation.

One experiment deals with Carbonic anhydrase 1 (Homo sapiens, UniProt P00915).
Another experiment addresses Carbonic anhydrase 2 (Homo sapiens, UniProt P00918).

Chain of Carbonic anhydrase 1 (P00915 whole entry): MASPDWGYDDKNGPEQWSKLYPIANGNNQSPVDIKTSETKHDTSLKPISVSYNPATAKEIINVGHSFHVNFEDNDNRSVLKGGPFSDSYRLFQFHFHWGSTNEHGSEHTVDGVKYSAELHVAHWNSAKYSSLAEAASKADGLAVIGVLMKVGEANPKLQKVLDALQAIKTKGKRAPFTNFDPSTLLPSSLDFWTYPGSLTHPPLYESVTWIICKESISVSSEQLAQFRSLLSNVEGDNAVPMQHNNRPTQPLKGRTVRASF

For the compound `NS(=O)(=O)c1ccc(CNC(=O)Cc2ccccc2F)cc1`, the Ki at Carbonic anhydrase 1 worked out at 269 nM; at Carbonic anhydrase 2 it was 26.3 nM.
With `NS(=O)(=O)c1ccc(CNC(=O)c2ccc(Br)cc2)cc1`, the Ki was 95 nM at Carbonic anhydrase 1 and 63 nM on Carbonic anhydrase 2.
For `NS(=O)(=O)c1ccc(CNC(=O)c2ccccc2Cc2ccccc2)cc1`, the Ki at Carbonic anhydrase 1 was found to be 98.3 nM; on Carbonic anhydrase 2 it was 54.4 nM.
Turning to `CSCCC(=O)NCc1ccc(S(N)(=O)=O)cc1`, the Ki amounted to 572 nM on Carbonic anhydrase 1 and 69.5 nM at Carbonic anhydrase 2.
The like results for `Cc1cccc(C(=O)NCc2ccc(S(N)(=O)=O)cc2)c1` were, in that order, 60.7 nM and 3.3 nM.
For the compound `NS(=O)(=O)c1ccc(CNC(=O)c2cccc(Cl)c2)cc1`, the inhibitory constant (Ki) amounted to 65.9 nM on Carbonic anhydrase 1 and 5.1 nM on Carbonic anhydrase 2.
As for `NS(=O)(=O)c1ccc(CNC(=O)c2ccc(-c3ccccc3)cc2)cc1`, the values for the Ki on Carbonic anhydrase 1 and on Carbonic anhydrase 2 were 2110 nM and 920 nM, respectively.
In the same order, the values of `NS(=O)(=O)c1ccc(CNC(=O)c2ccsc2)cc1` are 44.2 nM and 83.8 nM.
In the same order, the values of `NS(=O)(=O)c1ccc(CNC(=O)c2cc(Cl)ccc2Cl)cc1` are 77.8 nM and 31.6 nM.

(Values after ChEMBL document CHEMBL4725482, “In Silico-Guided Identification of New Potent Inhibitors of Carbonic Anhydrases Expressed in Vibrio cholerae” (ACS Med Chem Lett, 2020).)
